Laboratory results published in the kinase profiling compilation of Christmann-Franck et al. (2016).

Legend:
Test in all cases: KINOMEscan competition binding
Conditions in all cases: compound 10.0 µM
ABL2 (human) = ABL2 (human) (UniProt P42684)
ACVR2B (human) = ACVR2B (human) (UniProt Q13705)
ANKK1 (human) = ANKK1 (human) (UniProt Q8NFD2)
BMPR1A (human) = BMPR1A (human) (UniProt P36894)
BTK (human) = BTK (human) (UniProt Q06187)
CDK15 (human) = CDK15 (human) (UniProt Q96Q40)
CDK8 (human) = CDK8 (human) (UniProt P49336)
CLK4 (human) = CLK4 (human) (UniProt Q9HAZ1)
CaMK1 (human) = CaMK1 (human) (UniProt Q14012)
Chain of CaMK1 (human) (Q14012 whole entry, looked up): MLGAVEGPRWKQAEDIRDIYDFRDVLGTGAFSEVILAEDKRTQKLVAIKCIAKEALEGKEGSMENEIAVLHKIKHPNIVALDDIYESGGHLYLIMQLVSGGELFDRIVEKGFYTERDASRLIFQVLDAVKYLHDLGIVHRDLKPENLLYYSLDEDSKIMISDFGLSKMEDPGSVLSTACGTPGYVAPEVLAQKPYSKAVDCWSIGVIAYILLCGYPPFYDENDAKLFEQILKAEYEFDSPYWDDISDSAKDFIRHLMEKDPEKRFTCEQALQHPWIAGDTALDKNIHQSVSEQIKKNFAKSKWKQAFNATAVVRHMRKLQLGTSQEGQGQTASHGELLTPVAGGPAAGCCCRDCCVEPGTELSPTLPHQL

DCLK3 (human) = DCLK3 (human) (UniProt Q9C098)
Chain of DCLK3 (human) (Q9C098 whole entry, looked up): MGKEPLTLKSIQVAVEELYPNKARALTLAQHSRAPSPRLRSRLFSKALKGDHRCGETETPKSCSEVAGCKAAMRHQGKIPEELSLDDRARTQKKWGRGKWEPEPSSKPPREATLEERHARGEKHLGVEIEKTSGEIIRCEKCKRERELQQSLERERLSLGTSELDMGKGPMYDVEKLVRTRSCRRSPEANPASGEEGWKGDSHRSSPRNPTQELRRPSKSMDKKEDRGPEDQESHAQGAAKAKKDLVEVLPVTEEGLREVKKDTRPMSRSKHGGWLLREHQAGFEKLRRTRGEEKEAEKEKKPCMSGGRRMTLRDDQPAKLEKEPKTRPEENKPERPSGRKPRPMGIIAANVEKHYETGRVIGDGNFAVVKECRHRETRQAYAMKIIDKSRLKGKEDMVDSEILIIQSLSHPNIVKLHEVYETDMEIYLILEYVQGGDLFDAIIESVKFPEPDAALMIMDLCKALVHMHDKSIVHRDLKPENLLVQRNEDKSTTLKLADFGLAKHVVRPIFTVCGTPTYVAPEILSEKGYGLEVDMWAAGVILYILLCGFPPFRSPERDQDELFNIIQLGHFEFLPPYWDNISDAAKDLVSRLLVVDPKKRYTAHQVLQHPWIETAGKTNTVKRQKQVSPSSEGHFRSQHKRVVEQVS

DYRK2 (human) = DYRK2 (human) (UniProt Q92630)
[1] = tested on: EGFR (human), P00533 [L858R]
EPHB6 (human) = EPHB6 (human) (UniProt O15197)
ERBB2 (human) = ERBB2 (human) (UniProt P04626)
Chain of ERBB2 (human) (P04626 whole entry, looked up): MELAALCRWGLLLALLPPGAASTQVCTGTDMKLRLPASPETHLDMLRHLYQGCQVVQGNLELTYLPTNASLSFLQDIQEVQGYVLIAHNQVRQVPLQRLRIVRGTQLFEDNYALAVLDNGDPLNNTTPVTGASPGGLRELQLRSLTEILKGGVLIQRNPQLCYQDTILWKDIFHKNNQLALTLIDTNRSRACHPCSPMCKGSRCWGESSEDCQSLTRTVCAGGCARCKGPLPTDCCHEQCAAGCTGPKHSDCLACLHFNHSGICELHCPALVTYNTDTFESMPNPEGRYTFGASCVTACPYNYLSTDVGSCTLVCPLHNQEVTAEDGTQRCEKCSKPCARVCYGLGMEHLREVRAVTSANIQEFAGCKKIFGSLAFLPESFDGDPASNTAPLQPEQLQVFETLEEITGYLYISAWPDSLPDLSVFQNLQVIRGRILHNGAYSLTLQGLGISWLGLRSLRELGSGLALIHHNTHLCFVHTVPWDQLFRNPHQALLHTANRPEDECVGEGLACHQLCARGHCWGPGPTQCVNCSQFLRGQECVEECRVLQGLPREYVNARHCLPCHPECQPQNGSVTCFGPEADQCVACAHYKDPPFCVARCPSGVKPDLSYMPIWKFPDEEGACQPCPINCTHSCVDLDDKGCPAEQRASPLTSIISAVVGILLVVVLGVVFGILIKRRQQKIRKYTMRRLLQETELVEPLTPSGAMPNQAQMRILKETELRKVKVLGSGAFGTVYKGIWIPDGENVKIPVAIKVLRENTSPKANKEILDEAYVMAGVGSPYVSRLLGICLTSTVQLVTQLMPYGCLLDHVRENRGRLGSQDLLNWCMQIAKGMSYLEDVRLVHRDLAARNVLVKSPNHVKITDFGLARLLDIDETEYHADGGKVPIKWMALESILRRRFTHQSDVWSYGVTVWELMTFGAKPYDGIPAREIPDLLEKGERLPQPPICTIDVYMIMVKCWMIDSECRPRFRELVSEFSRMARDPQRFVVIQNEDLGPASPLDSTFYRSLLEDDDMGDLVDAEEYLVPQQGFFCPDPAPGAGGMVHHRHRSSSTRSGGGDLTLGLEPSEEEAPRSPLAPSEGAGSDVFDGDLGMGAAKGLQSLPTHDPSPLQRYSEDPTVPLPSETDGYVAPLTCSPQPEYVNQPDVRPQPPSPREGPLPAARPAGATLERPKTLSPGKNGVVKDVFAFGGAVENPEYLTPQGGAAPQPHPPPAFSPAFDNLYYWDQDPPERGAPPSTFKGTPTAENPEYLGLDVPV

FES (human) = FES (human) (UniProt P07332)
FGFR2 (human) = FGFR2 (human) (UniProt P21802)
GSK3B (human) = GSK3B (human) (UniProt P49841)
HUNK (human) = HUNK (human) (UniProt P57058)
IKBKE (human) = IKBKE (human) (UniProt Q14164)
INSRR (human) = INSRR (human) (UniProt P14616)
IRAK3 (human) = IRAK3 (human) (UniProt Q9Y616)
[2] = molecular target: JAK1 JH2 pseudokinase (human) (UniProt P23458)
MAP2K5 (human) = MAP2K5 (human) (UniProt Q13163)
MAP3K11 (human) = MAP3K11 (human) (UniProt Q16584)
MAP3K7 (human) = MAP3K7 (human) (UniProt O43318)
MYLK4 (human) = MYLK4 (human) (UniProt Q86YV6)
Chain of MYLK4 (human) (Q86YV6 whole entry, looked up): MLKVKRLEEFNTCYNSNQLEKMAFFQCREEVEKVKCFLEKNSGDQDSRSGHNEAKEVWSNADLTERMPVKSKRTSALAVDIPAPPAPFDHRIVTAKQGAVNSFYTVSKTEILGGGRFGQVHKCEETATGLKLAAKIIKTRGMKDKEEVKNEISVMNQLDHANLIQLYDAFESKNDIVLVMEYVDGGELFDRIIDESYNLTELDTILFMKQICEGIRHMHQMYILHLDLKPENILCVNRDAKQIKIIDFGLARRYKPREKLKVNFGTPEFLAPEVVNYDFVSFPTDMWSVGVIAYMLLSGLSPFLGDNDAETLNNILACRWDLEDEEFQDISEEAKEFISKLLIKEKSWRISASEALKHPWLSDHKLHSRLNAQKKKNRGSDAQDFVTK

NTRK2 (human) = NTRK2 (human) (UniProt Q16620)
Chain of NTRK2 (human) (Q16620 whole entry, looked up): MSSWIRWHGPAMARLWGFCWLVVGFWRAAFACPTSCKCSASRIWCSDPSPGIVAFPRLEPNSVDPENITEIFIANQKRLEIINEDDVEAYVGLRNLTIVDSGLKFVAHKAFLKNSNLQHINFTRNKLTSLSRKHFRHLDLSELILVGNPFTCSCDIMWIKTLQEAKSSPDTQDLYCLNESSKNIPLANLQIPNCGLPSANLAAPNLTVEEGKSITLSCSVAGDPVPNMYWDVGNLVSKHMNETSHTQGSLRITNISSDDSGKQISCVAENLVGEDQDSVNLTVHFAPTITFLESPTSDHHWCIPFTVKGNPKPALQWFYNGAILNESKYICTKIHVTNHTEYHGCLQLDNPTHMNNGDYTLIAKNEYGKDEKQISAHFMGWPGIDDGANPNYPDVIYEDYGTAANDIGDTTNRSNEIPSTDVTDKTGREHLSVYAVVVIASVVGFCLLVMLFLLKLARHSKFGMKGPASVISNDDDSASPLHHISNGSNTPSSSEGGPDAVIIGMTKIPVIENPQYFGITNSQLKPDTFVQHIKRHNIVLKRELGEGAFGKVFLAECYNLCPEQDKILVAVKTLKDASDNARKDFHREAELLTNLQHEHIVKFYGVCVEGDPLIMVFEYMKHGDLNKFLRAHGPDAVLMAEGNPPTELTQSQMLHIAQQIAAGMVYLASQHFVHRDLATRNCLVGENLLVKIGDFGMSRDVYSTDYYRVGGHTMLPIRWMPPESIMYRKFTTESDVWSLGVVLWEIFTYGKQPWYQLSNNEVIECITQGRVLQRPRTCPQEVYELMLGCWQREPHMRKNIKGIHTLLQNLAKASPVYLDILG

PHKG2 (human) = PHKG2 (human) (UniProt P15735)
Chain of PHKG2 (human) (P15735 whole entry, looked up): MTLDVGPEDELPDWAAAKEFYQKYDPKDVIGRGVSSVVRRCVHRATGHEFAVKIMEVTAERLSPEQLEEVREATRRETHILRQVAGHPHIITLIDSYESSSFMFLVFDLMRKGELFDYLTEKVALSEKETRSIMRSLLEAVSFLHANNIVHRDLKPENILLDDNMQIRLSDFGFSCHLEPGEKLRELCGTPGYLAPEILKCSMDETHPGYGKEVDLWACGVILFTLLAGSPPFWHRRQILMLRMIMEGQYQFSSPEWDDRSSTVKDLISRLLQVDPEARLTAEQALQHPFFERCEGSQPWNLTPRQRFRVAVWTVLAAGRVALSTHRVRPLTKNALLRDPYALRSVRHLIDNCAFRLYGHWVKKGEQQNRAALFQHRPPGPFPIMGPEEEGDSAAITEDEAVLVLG

[3] = tested on: PIK3CA (human), P42336 [M1043I]
PRKG1 (human) = PRKG1 (human) (UniProt Q13976)
RIPK1 (human) = RIPK1 (human) (UniProt Q13546)
RPS6KA4 KD1 (human) = RPS6KA4 KD1 (human) (UniProt O75676)
SIK3 (human) = SIK3 (human) (UniProt Q9Y2K2)
SLK (human) = SLK (human) (UniProt Q9H2G2)
STK33 (human) = STK33 (human) (UniProt Q9BYT3)
TAOK1 (human) = TAOK1 (human) (UniProt Q7L7X3)
TESK1 (human) = TESK1 (human) (UniProt Q15569)
TNIK (human) = TNIK (human) (UniProt Q9UKE5)
TNK1 (human) = TNK1 (human) (UniProt Q13470)
TSSK1B (human) = TSSK1B (human) (UniProt Q9BXA7)
Chain of TSSK1B (human) (Q9BXA7 whole entry, looked up): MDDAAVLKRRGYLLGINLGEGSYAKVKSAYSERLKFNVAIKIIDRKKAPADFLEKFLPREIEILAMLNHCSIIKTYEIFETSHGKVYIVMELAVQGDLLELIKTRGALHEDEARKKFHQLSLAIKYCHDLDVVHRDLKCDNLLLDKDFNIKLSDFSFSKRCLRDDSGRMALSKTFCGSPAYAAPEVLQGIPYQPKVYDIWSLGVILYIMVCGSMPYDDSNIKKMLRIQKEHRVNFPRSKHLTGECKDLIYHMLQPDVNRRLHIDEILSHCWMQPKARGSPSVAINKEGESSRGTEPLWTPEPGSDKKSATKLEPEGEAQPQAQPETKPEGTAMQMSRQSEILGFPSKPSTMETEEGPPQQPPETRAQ

Chain of ANKK1 (human) (Q8NFD2 whole entry, looked up): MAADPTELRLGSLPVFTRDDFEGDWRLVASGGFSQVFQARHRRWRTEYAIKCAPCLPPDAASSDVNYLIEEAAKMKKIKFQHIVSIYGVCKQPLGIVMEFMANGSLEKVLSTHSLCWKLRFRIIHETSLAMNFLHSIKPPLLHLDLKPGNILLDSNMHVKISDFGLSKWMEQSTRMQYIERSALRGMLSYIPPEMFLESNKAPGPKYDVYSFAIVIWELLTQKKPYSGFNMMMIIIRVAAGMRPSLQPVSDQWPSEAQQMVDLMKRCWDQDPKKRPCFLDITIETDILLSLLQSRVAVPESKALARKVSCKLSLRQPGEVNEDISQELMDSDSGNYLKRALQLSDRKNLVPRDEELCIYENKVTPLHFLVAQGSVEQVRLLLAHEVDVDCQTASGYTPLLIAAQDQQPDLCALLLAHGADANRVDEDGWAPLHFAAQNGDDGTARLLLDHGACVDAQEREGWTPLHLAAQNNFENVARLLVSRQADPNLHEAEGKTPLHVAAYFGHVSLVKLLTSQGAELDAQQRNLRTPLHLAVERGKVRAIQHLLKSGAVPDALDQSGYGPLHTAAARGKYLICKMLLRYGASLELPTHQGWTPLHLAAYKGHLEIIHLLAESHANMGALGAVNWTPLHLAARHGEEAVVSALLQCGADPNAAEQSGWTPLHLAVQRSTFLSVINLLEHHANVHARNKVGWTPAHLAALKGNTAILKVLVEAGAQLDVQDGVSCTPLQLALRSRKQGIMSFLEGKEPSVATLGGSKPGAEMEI

CNC(=O)Nc1ccc(-c2nc(N3CC4CCC(C3)O4)c3cnn(C4CCC5(CC4)OCCO5)c3n2)cc1
kinase still bound, per cent of control (ABL2 (human)): 84%
kinase still bound, per cent of control (ACVR2B (human)): 77%
kinase still bound, per cent of control (ANKK1 (human)): 77%
kinase still bound, per cent of control (BMPR1A (human)): 93%
kinase still bound, per cent of control (BTK (human)): 90%
kinase still bound, per cent of control (CDK15 (human)): 100%
kinase still bound, per cent of control (CDK8 (human)): 100%
kinase still bound, per cent of control (CLK4 (human)): 88%
kinase still bound, per cent of control (CaMK1 (human)): 93%
kinase still bound, per cent of control (DCLK3 (human)): 100%
kinase still bound, per cent of control (DYRK2 (human)): 90%
kinase still bound, per cent of control [1]: 53%
kinase still bound, per cent of control (EPHB6 (human)): 83%
kinase still bound, per cent of control (ERBB2 (human)): 88%
kinase still bound, per cent of control (FES (human)): 100%
kinase still bound, per cent of control (FGFR2 (human)): 92%
kinase still bound, per cent of control (GSK3B (human)): 69%
kinase still bound, per cent of control (HUNK (human)): 100%
kinase still bound, per cent of control (IKBKE (human)): 100%
kinase still bound, per cent of control (INSRR (human)): 100%
kinase still bound, per cent of control (IRAK3 (human)): 100%
kinase still bound, per cent of control [2]: 83%
kinase still bound, per cent of control (MAP2K5 (human)): 93%
kinase still bound, per cent of control (MAP3K11 (human)): 100%
kinase still bound, per cent of control (MAP3K7 (human)): 98%
kinase still bound, per cent of control (MYLK4 (human)): 100%
kinase still bound, per cent of control (NTRK2 (human)): 100%
kinase still bound, per cent of control (PHKG2 (human)): 96%
kinase still bound, per cent of control [3]: 4.4%
kinase still bound, per cent of control (PRKG1 (human)): 100%
kinase still bound, per cent of control (RIPK1 (human)): 83%
kinase still bound, per cent of control (RPS6KA4 KD1 (human)): 90%
kinase still bound, per cent of control (SIK3 (human)): 35%
kinase still bound, per cent of control (SLK (human)): 100%
kinase still bound, per cent of control (STK33 (human)): 82%
kinase still bound, per cent of control (TAOK1 (human)): 100%
kinase still bound, per cent of control (TESK1 (human)): 80%
kinase still bound, per cent of control (TNIK (human)): 100%
kinase still bound, per cent of control (TNK1 (human)): 78%
kinase still bound, per cent of control (TSSK1B (human)): 100%

N#Cc1cc(-c2ccnc(Nc3ccc(-n4cnc(-c5cccnc5)n4)cc3)n2)cc(N2CCOCC2)c1
kinase still bound, per cent of control (ABL2 (human)): 67%
kinase still bound, per cent of control (ACVR2B (human)): 49%
kinase still bound, per cent of control (ANKK1 (human)): 55%
kinase still bound, per cent of control (BMPR1A (human)): 28%
kinase still bound, per cent of control (BTK (human)): 74%
kinase still bound, per cent of control (CDK15 (human)): 55%
kinase still bound, per cent of control (CDK8 (human)): 80%
kinase still bound, per cent of control (CLK4 (human)): 7.2%
kinase still bound, per cent of control (CaMK1 (human)): 83%
kinase still bound, per cent of control (DCLK3 (human)): 100%
kinase still bound, per cent of control (DYRK2 (human)): 39%
kinase still bound, per cent of control [1]: 54%
kinase still bound, per cent of control (EPHB6 (human)): 14%
kinase still bound, per cent of control (ERBB2 (human)): 100%
kinase still bound, per cent of control (FES (human)): 91%
kinase still bound, per cent of control (FGFR2 (human)): 91%
kinase still bound, per cent of control (GSK3B (human)): 3.1%
kinase still bound, per cent of control (HUNK (human)): 42%
kinase still bound, per cent of control (IKBKE (human)): 37%
kinase still bound, per cent of control (INSRR (human)): 68%
kinase still bound, per cent of control (IRAK3 (human)): 12%
kinase still bound, per cent of control [2]: 0.95%
kinase still bound, per cent of control (MAP2K5 (human)): 8.6%
kinase still bound, per cent of control (MAP3K11 (human)): 46%
kinase still bound, per cent of control (MAP3K7 (human)): 15%
kinase still bound, per cent of control (MYLK4 (human)): 26%
kinase still bound, per cent of control (NTRK2 (human)): 100%
kinase still bound, per cent of control (PHKG2 (human)): 81%
kinase still bound, per cent of control [3]: 100%
kinase still bound, per cent of control (PRKG1 (human)): 100%
kinase still bound, per cent of control (RIPK1 (human)): 7.8%
kinase still bound, per cent of control (RPS6KA4 KD1 (human)): 100%
kinase still bound, per cent of control (SIK3 (human)): 100%
kinase still bound, per cent of control (SLK (human)): 10%
kinase still bound, per cent of control (STK33 (human)): 88%
kinase still bound, per cent of control (TAOK1 (human)): 20%
kinase still bound, per cent of control (TESK1 (human)): 54%
kinase still bound, per cent of control (TNIK (human)): 26%
kinase still bound, per cent of control (TNK1 (human)): 25%
kinase still bound, per cent of control (TSSK1B (human)): 100%
